Source: US20250326748A1, “COMPOUNDS AND METHODS FOR MODULATING SPLICING” (REMIX THERAPEUTICS INC., priority 2022, published 2025)
Where two headings read alike, the source gives them in different places.

Legend:
Target C mRNA = test: Splicing RT-qPCR panel, Target C canonical junction (CJ) mRNA; assay type: cell-based, human; conditions: read-out: Target C CJ (decrease in CJ mRNA levels, IC50)
Summary of the method: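 A673 cells (DMEM, 10% FBS) or K562 cells (IMDM, 10% FBS) treated 24 h at 37 °C with an 11-point 3-fold dilution, top 10 uM, DMSO ≤0.25%. Canonical-junction mRNA quantified in lysates by RT-qPCR, normalised to GAPDH, GUSB or PPIA and to DMSO (2^−ΔΔCt), then converted to % response.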

HiBiT-tagged HTT protein = test: HiBiT protein abundance assay, HTT (K562 HiBiT knock-in); assay type: cell-based, human; conditions: HiBiT knock-in cells, 24 hours
Summary of the method: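 Endogenously HiBiT-tagged K562 knock-in lines treated 24 h at 37 °C with 10-point 3-fold dilutions (top 10 μM final, DMSO ≤0.25%) in IMDM+1% FBS. Lytic Nano-Glo luminescence normalized to DMSO and unmodified K562 controls; four-parameter fit gives 50%-abundance concentration (IC50).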

| SMILES | IC50 (Target C mRNA; Homo sapiens) [nM] | IC50 (HiBiT-tagged HTT protein) [nM] | IC50 (Target C mRNA) [nM] |
| --- | --- | --- | --- |
| Cn1cc2cc(-c3ccc4cc(N5CC[C@H](NC(C)(C)C)C5)cnc4n3)c(O)cc2n1 (single isomer, unassigned) [Compound 200] | 1000 to 10000 | 1000 to 10000 | – |
| CNC1CCN(c2cnc3nc(-c4cc(F)c5nc(C)cn5c4)ccc3c2)C1 (stereo not shown) [Compound 100, 1-(7-{8-fluoro-2-methylimidazo[1,2-a]pyridin-6-yl}-1,8-naphthyridin-3-yl)-N-methylpyrrolidin-3-amine] | 100 to 1000 | 100 to 1000 | – |
| Cn1cc2cc(-c3cnc4nc(N5CCNCC5)cc(Cl)c4c3)cc(F)c2n1 [Compound 101, 4-chloro-6-(7-fluoro-2-methyl-2H-indazol-5-yl)-2-(piperazin-1-yl)-1,8-naphthyridine] | > 10000 | 1000 to 10000 | – |
| Cn1cc2cc(-c3cc(Cl)c4cc(N5CCNCC5)cnc4n3)c(O)cc2n1 [Compound 102, 5-[4-chloro-6-(piperazin-1-yl)-1,8-naphthyridin-2-yl]-2-methylindazol-6-ol] | 1000 to 10000 | 100 to 1000 | – |
| Cn1cc2cc(-c3cc(Cl)c4cc(N5CCNCC5)cnc4n3)cc(F)c2n1 [Compound 103] | 1000 to 10000 | 100 to 1000 | – |
| Cc1c(O)c(-c2cc(Cl)c3cc(N4CCNCC4)cnc3n2)cc2cn(C)nc12 [Compound 154, 5-[4-chloro-6-(piperazin-1-yl)-1,8-naphthyridin-2-yl]-2,7-dimethylindazol-6-ol] | 1000 to 10000 | 100 to 1000 | – |
| Cn1cc2cc(-c3cc(Cl)c4cc(N5CCNCC5)cnc4n3)c(O)c(F)c2n1 [Compound 155, 5-[4-chloro-6-(piperazin-1-yl)-1,8-naphthyridin-2-yl]-7-fluoro-2-methylindazol-6-ol] | 100 to 1000 | < 100 | – |
| Cc1c(O)c(-c2ncc3cc(N4CC[C@@H](N)C4)cnc3n2)cc2cn(C)nc12 [Compound 159, (R)-5-(6-(3-aminopyrrolidin-1-yl)pyrido[2,3-d]pyrimidin-2-yl)-2,7-dimethyl-2H-indazol-6-ol 2,2,2-trifluoroacetate] | 100 to 1000 | < 100 | – |
| Cc1c(O)c(-c2ncc3cc(N4CC[C@H](N)C4)cnc3n2)cc2cn(C)nc12 [Compound 160, (S)-5-(6-(3-aminopyrrolidin-1-yl)pyrido[2,3-d]pyrimidin-2-yl)-2,7-dimethyl-2H-indazol-6-ol 2,2,2-trifluoroacetate] | 1000 to 10000 | < 100 | – |
| CNC1CCN(c2cnc3nc(-c4cc5cn(C)nc5c(C)c4O)nc(OC)c3c2)C1 (stereo not shown) [Compound 161, 5-{4-methoxy-6-[3-(methylamino)pyrrolidin-1-yl]pyrido[2,3-d]pyrimidin-2-yl}-2,7-dimethylindazol-6-ol] | 1000 to 10000 | 100 to 1000 | – |
| COc1nc(-c2cc3cn(C)nc3c(C)c2O)nc2ncc(N3CCNCC3)cc12 [Compound 162, 5-[4-methoxy-6-(piperazin-1-yl)pyrido[2,3-d]pyrimidin-2-yl]-2,7-dimethylindazol-6-ol] | 1000 to 10000 | 100 to 1000 | – |
| COc1nc(-c2cc3cn(C)nc3c(C)c2O)nc2ncc(N3CCC(N(C)C)CC3)cc12 [Compound 163, 5-{6-[4-(dimethylamino)piperidin-1-yl]-4-methoxypyrido[2,3-d]pyrimidin-2-yl}-2,7-dimethylindazol-6-ol] | > 10000 | 1000 to 10000 | – |
| Cn1cc2cc(-c3cnc4cc(N5CCC(NC6CC6)C5)ccc4n3)c(O)c(F)c2n1 (stereo not shown) [Compound 175, 5-[6-[3-(cyclopropylamino)pyrrolidin-1-yl]quinoxalin-2-yl]-7-fluoro-2-methyl-indazol-6-ol] | 100 to 1000 | < 100 | – |
| Cn1cc2cc(-c3cnc4cc(N5CC[C@H](NC6CC6)C5)ccc4n3)c(O)c(F)c2n1 [Compound 176, 5-[6-[(3S)-3-(cyclopropylamino)318quinoxaline-1-yl]318quinoxaline-2-yl]-7-fluoro-2-methyl-indazol-6-ol] | 100 to 1000 | < 100 | – |
| Cn1cc2cc(-c3cnc4cc(N5CC[C@@H](NC6CC6)C5)ccc4n3)c(O)c(F)c2n1 [Compound 177, 5-[6-[(3R)-3-(cyclopropylamino)318quinoxaline-1-yl]318quinoxaline-2-yl]-7-fluoro-2-methyl-indazol-6-ol] | < 100 | < 100 | – |
| Cn1cc2cc(-c3cnc4nc(N5CCC(NC6CC6)C5)ccc4n3)c(O)c(F)c2n1 (stereo not shown) [Compound 178, 5-[6-[3-(cyclopropylamino)pyrrolidin-1-yl]pyrido[2,3-b]pyrazin-2-yl]-7-fluoro-2-methyl-indazol-6-ol] | 100 to 1000 | 100 to 1000 | – |
| Cc1nc2c(C)c(O)c(-c3cnc4cc(N5CCC(NC6CC6)C5)ccc4n3)cc2o1 (stereo not shown) [Compound 182, 6-[6-[3-(cyclopropylamino)pyrrolidin-1-yl]quinoxalin-2-yl]-2,4-dimethyl-1,3-benzoxazol-5-ol] | 100 to 1000 | < 100 | – |
| CNC1CCN(c2cnc3nc(-c4cc5cn(C)nc5c(C)c4O)ccc3n2)C1 (stereo not shown) [Compound 192, 2,7-dimethyl-5-{2-[3-(methylamino)337pyrrolidine-1-yl]pyrido[2,3-b]pyrazin-6-yl}indazol-6-ol] | 100 to 1000 | 100 to 1000 | – |

| SMILES | IC50 (Target C mRNA; Homo sapiens) [nM] | IC50 (HiBiT-tagged HTT protein) [nM] | IC50 (Target C mRNA) [nM] |
| --- | --- | --- | --- |
| CNC1CCN(c2cnc3nc(-c4cc5cn(C)nc5c(C)c4O)cc(Cl)c3n2)C1 (stereo not shown) [Compound 193, 5-{8-chloro-2-[3-(methylamino)355pyrrolidine-1-yl]pyrido[2,3-b]pyrazin-6-yl}-2,7-dimethylindazol-6-ol] | 100 to 1000 | 100 to 1000 | – |
| CNC1CCN(c2cnc3nc(-c4cc5cn(C)nc5c(C)c4O)cc(OC)c3n2)C1 (stereo not shown) [Compound 194, 5-{8-methoxy-2-[3-(methylamino)360pyrrolidine-1-yl]pyrido[2,3-b]pyrazin-6-yl}-2,7-dimethylindazol-6-ol] | > 10000 | 1000 to 10000 | – |
| Cc1c(O)c(-c2ccc3nc(N4C[C@@H](C)N[C@@H](C)C4)cnc3n2)cc2cn(C)nc12 [Compound 195, 5-{2-[(3R,5S)-3,5-dimethylpiperazin-1-yl]pyrido[2,3-b]pyrazin-6-yl}-2,7-dimethylindazol-6-ol] | > 10000 | 1000 to 10000 | – |
| Cc1c(O)c(-c2ccc3nc(N4CCNCC4)cnc3n2)cc2cn(C)nc12 [Compound 197, 2,7-dimethyl-5-[2-(piperazin-1-yl)pyrido[2,3-b]pyrazin-6-yl]indazol-6-ol] | 100 to 1000 | 100 to 1000 | – |
| Cc1c(O)c(-c2ccc3nc(N4CCC(N(C)C)CC4)cnc3n2)cc2cn(C)nc12 [Compound 198] | 100 to 1000 | 1000 to 10000 | – |
| Cn1cc2cc(-c3ccc4cc(N5CC[C@@H](NC(C)(C)C)C5)cnc4n3)c(O)cc2n1 [Compound 199] | 1000 to 10000 | 1000 to 10000 | – |
| Cc1cn2cc(-c3cnc4nc(C5CCNCC5)ccc4c3)cc(C)c2n1 [Compound 201] | < 100 | > 10000 | – |
| CN[C@@H]1CCN(c2cnc3nc(-c4cc(F)c5nc(C)cn5c4)ncc3c2)C1 [Compound 202, (3R)-1-(2-{8-fluoro-2-methylimidazo[1,2-a]pyridin-6-yl}pyrido[2,3-d]pyrimidin-6-yl)-N-methylpyrrolidin-3-amine] | 100 to 1000 | 100 to 1000 | – |
| CC1CN(c2cnc3nc(-c4cc(F)c5nn(C)cc5c4)cc(Cl)c3c2)CCN1 (stereo not shown) [Compound 203, 4-chloro-2-(7-fluoro-2-methyl-2H-indazol-5-yl)-6-(3-methylpiperazin-1-yl)-1,8-naphthyridine 2,2,2-trifluoroacetate] | 1000 to 10000 | 100 to 1000 | – |
| Cc1c(O)c(-c2cc(Cl)c3cc(N(C)C4CCNC4)cnc3n2)cc2cn(C)nc12 (stereo not shown) [Compound 204, 5-[4-chloro-6-(367pyrrolidine-3-ylamino)-1,8-naphthyridin-2-yl]-2,7-dimethylindazol-6-ol] | > 10000 | 100 to 1000 | – |
| Cc1cn2nc(-c3ccc4cc(N(C)C5CCNCC5)cnc4n3)cc(C)c2n1 [Compound 205, 7-{2,8-dimethylimidazo[1,2-b]pyridazin-6-yl}-N-methyl-N-(piperidin-4-yl)-1,8-naphthyridin-3-amine] | > 10000 | > 10000 | – |
| C[C@@H]1CN(c2cnc3nc(-c4cc5cn(C)nc5c(F)c4O)ccc3c2)C[C@H](C)N1 [Compound 206] | 100 to 1000 | < 100 | – |
| Cc1c(O)c(-c2cc(Cl)c3cc(N4C[C@@H](C)N[C@@H](C)C4)cnc3n2)cc2cn(C)nc12 [Compound 207, 5-{4-chloro-6-[(3R,5S)-3,5-dimethylpiperazin-1-yl]-1,8-naphthyridin-2-yl}-2,7-dimethylindazol-6-ol] | – | < 100 | 100 to 1000 |
| C[C@@H]1CN(c2cnc3nc(-c4cc5cn(C)nc5cc4O)cc(Cl)c3c2)C[C@H](C)N1 [Compound 208] | 1000 to 10000 | 100 to 1000 | – |
| Cn1cc2cc(-c3cc(Cl)c4cc(N5CCNC(C6CC6)C5)cnc4n3)cc(F)c2n1 (stereo not shown) [Compound 209, 4-chloro-6-(3-cyclopropylpiperazin-1-yl)-2-(7-fluoro-2-methylindazol-5-yl)-1,8-naphthyridine] | 1000 to 10000 | 100 to 1000 | – |
| Cc1cn2nc(-c3ccc4cc(NC5CCNCC5)cnc4n3)cc(C)c2n1 [Compound 210, 7-{2,8-dimethylimidazo[1,2-b]pyridazin-6-yl}-N-(piperidin-4-yl)-1,8-naphthyridin-3-amine; trifluoroacetic acid] | > 10000 | 1000 to 10000 | – |
| CN[C@@H]1CCN(c2cnc3nc(-c4cc5cn(C)nc5c(C)c4O)nc(OC)c3c2)C1 [Compound 211, 5-{4-methoxy-6-[(3R)-3-(methylamino)pyrrolidin-1-yl]pyrido[2,3-d]pyrimidin-2-yl}-2,7-dimethylindazol-6-ol] | 100 to 1000 | < 100 | – |
